Experimental data: patent publication US8883473B2, “Methods of treatment using allosteric processing inhibitors for matrix metalloproteinases” (Janssen Pharmaceutica N.V., priority 2011, dated 2014)

Key:
MMP9 = biological target: T1, MMP9 (Rattus norvegicus, UniProt P50282); assay: Pro and active MMP9 in ankles of rats with SCW-induced arthritis by Western blot; format: in vivo; conditions: day 26, four hours after the AM dose, mAb-L51/82
T1 construct: Pro and active MMP9 were abundantly present in ankles of SCW-induced vehicle-treated rats; from tissue; host or cells: tibia-tarsus joints (ankles) of female Lewis rats
Procedure: Hind-limbs were skinned, severed just above the tibia-tarsus joint and below the metatarsals, and the tibia-tarsus joints (ankles) were weighed, snap frozen and pulverized on dry ice using a hammer and anvil. The pulverized tissue was suspended in 3 volumes (w:v) of ice-cold homogenization buffer containing 50 mM Tris pH 7.5, 150 mM NaCl, 5 mM EDTA, 1% Triton X100, 0.05% Brij 30, 10% dimethylsulfoxide and Complete EDTA-free Protease Inhibitor Cocktail (Roche Diagnostics). The suspended tissue was homogenized sequentially with a Kinematica AG Polytron and a Dounce homogenizer. Homogenates were centrifuged at 16,000×g for 10 min at 4° C. and the soluble fractions were saved. Dimethylsulfoxide was removed from a portion of each soluble fraction using PD MiniTrap™ G-25 desalting columns (GE Healthcare). Homogenates (0.25 mL), free of DMSO, were diluted with an equal volume of binding buffer (i.e., homogenization buffer without dimethylsufoxide) and adjusted to contain 50 μL of a 50% slurry of gelatin-conjugated sepharose. Following 2 hours of rotation at 4° C. the beads were washed twice in binding buffer and eluted in 100 μL 2×-reducing Laemmli buffer with heating to 95° C. for 5 minutes. […]

[1] = system: female Lewis rats with SCW-induced arthritis; assay: Efficacy in rats with SCW-induced arthritis (ankle thickness, clinical scores); format: in vivo, rat
Procedure: To induce arthritis, Female Lewis (LEW/N) rats, 5-6 weeks of age (80-100 g) were injected (i.p.) with SCW PG-PS as described above. Eighteen days later, arthritis was well established. Calipers were used to measure the width (anterior to posterior surface) of the left and right hind ankles of each rat. Each ankle was measured 3 times and averaged, and treatment groups were randomized based on ankle thickness (Table 6). Commencing on day 18, randomized groups of arthritic rats (n=5 rats/group) received vehicle or 5, 20, or 50 mg/kg Example 2 BID by oral gavage. Vehicle consisted of an aqueous mixture containing 2% (v:v) N-methylpyrrolidone, 5% (v:v) glycerine, and 20% (w:v) captisol. Treatment continued daily through the morning of day 26.
By day 18 mean ankle thickness was increased an average of >4.4 mm compared to disease free rats. Rats treated with vehicle alone continued to gradually develop a more severe arthritis based on ankle thickness measurements over the eight-day treatment period (Table 6). […] By day 26, the disease associated increase in ankle thickness had been reduced 27, 37, and 46 percent by 5, 20, and 50 mg/kg Example 2, respectively.
Hind paw inflammation clinical scores were assigned based on swelling and erythema.

T1 sequence (P50282 108-708): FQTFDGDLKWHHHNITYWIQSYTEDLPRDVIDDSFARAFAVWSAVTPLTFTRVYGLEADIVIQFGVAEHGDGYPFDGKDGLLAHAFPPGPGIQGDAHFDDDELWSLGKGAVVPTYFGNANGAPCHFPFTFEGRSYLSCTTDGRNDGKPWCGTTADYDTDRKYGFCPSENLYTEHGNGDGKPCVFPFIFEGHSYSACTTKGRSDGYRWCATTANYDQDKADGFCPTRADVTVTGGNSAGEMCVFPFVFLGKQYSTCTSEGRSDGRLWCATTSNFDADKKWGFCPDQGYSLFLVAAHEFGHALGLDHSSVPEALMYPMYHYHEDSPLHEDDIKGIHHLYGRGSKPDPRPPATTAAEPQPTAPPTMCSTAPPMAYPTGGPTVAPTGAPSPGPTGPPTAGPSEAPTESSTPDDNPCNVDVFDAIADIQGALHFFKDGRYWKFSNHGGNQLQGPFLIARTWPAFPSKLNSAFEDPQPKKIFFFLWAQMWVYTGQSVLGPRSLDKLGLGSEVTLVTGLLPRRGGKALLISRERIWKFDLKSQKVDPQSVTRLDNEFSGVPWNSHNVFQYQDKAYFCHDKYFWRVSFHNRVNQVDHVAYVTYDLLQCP

Cc1nc(C)c(-c2csc(Nc3cc(S(N)(=O)=O)ccc3OC(C)C)n2)s1 [Example 2, 3-(2′,4′-Dimethyl-[4,5′]bithiazolyl-2-ylamino)-4-isopropoxy-benzenesulfonamide.HBr]
abundance of proMMP9 in ankles (MMP9): did not reduce | ankle thickness measurements ([1]; 5, 20, 50 mg/kg BID oral gavage Day 18-26): dose-dependent decrease | clinical score measurements ([1]; 5, 20, 50 mg/kg BID, significant effects emerging at the 20 mg/kg dose): dose dependent decrease
